What all share (type): cell-based
For one assay, the system named is wild-type E. coli A-1261. Briefly: MIC of prodrug with or without alkaline phosphatase or esterase. As for the experimental part:
Minimal Inhibitory Concentrations (MICs; mg/L) were determined in cation-adjusted Mueller-Hinton Broth by a microdilution method following the description given in “Methods for Dilution Antimicrobial Susceptibility Tests for Bacteria that Grow Aerobically”, Approved standard, 7th ed., Clinical and Laboratory Standards Institute (CLSI) Document M7-A7, Wayne, Pa., USA (2006).
The compound of Example 86 was tested against wild-type E. coli A-1261 in the absence of alkaline phosphatase or esterase, in the presence of an alkaline phosphatase and in the presence of an esterase. The corresponding antibacterial test results are given in Table 2 hereafter (MICs in mg/L).

In a further assay the test system is K. pneumoniae A-651. The assay is described as follows: Bacterial growth minimal inhibitory concentration (CLSI broth microdilution). The note with it: multiply resistant strain (in particular quinolone-resistant), cation-adjusted Mueller-Hinton Broth; for MIC: Klebsiella pneumoniae, A651. The procedure, abridged: (§1)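 Broth microdilution in cation-adjusted Mueller-Hinton broth following CLSI M7-A7. MICs are expressed in mg/L. K. pneumoniae A-651 is multiply resistant, including to quinolones; the E. coli and P. aeruginosa strains are quinolone-sensitive.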
On the technique in general: In broth dilution the organism is exposed to a series of concentrations in liquid medium.

The test system of the next assay is P. aeruginosa ATCC27853. The description is as above. The note with it: quinolone-sensitive strain, cation-adjusted Mueller-Hinton Broth; for MIC: Pseudomonas aeruginosa, ATCC27853. The procedure, abridged:
as §1

Another assay concerns E. coli ATCC25922. The assay is described as above. The note with it: quinolone-sensitive strain, cation-adjusted Mueller-Hinton Broth; for MIC: Escherichia coli, ATCC25922. In outline:
as §1

Results on ten compounds are retold here after patent US10314823B2, “Substituted 1,2-dihydro-3H-pyrrolo[1,2-c]imidazol-3-one antibacterial compounds” (IDORSIA PHARMACEUTICALS LTD, priority 2015, dated 2019).

In brackets after ≈: the same amount, converted by molar mass.

As for `C[C@@](CCN1Cc2cc(C#CC#CC3CN(CCO)C3)cn2C1=O)(C(=O)NOC(=O)CCc1ccccc1OP(=O)(O)O)S(C)(=O)=O` [Example 86, (2R)-2-(3-((4-(6-((1-(2-hydroxyethyl)azetidin-3-yl)buta-1,3-diyn-1-yl)-3-oxo-1H-pyrrolo[1,2-c]imidazol-2(3H)-yl)-2-methyl-2-(methylsulfonyl)butanamido)oxy)-3-oxopropyl)phenyl dihydrogen phosphate], the “MIC for E. coli A-1261 In the presence of an alkaline phosphatase (2 i.U./mL)” value with wild-type E. coli A-1261 (alkaline phosphatase 2 i.U./mL) is 1 µg/mL. Further, in the assay on wild-type E. coli A-1261 (esterase 10 i.U./mL), the “MIC for E. coli A-1261 In the presence of an esterase (10 i.U./mL)” value was found to be 16 µg/mL. Also, the “MIC for E. coli A-1261 In the absence of alkaline phosphatase or esterase” value with wild-type E. coli A-1261 (no alkaline phosphatase or esterase) came out at 16 µg/mL.
Consider `C[C@@](CCN1Cc2cc(C#CC#CC3CN([C@H]4C[C@@H](O)C4)C3)cn2C1=O)(C(=O)NO)S(C)(=O)=O` [Example 91, (2R)—N-hydroxy-4-(6-((1-((1s,3s)-3-hydroxycyclobutyl)azetidin-3-yl)buta-1,3-diyn-1-yl)-3-oxo-1H-pyrrolo[1,2-c]imidazol-2(3H)-yl)-2-methyl-2-(methylsulfonyl)butanamide], for which the “MIC for K. Pneumoniae A-651” value against K. pneumoniae A-651 is 0.5 µg/mL. Besides, in the assay on P. aeruginosa ATCC27853, the “MIC for P. aeruginosa ATCC27853” value is 1 µg/mL. Also, in the assay with E. coli ATCC25922, the “MIC for E. coli ATCC25922” value stood at 0.5 µg/mL.
As usually defined, the MIC is the smallest concentration in the dilution series that meets the test's criterion for growth inhibition. Higher therefore signals a need for much substance. On to `C[C@H]1[C@H](C#CC#Cc2cc3n(c2)C(=O)N(CC[C@](C)(C(=O)NO)S(C)(=O)=O)C3)CN1C` [Example 92, (2R)-4-(6-(((2S,3R)-1,2-dimethylazetidin-3-yl)buta-1,3-diyn-1-yl)-3-oxo-1H-pyrrolo[1,2-c]imidazol-2(3H)-yl)-N-hydroxy-2-methyl-2-(methylsulfonyl)butanamide], for which the MIC with K. pneumoniae A-651, with P. aeruginosa ATCC27853 and in the assay with E. coli ATCC25922 was 0.25 µg/mL (≈ 0.56 µM) throughout.
For `C[C@@H]1[C@@H](C#CC#Cc2cc3n(c2)C(=O)N(CC[C@](C)(C(=O)NO)S(C)(=O)=O)C3)CN1C` [Example 93, (2R)-4-(6-(((2R,3S)-1,2-dimethylazetidin-3-yl)buta-1,3-diyn-1-yl)-3-oxo-1H-pyrrolo[1,2-c]imidazol-2(3H)-yl)-N-hydroxy-2-methyl-2-(methylsulfonyl)butanamide], the figures for the minimum inhibitory concentration (MIC) against K. pneumoniae A-651, in the assay on P. aeruginosa ATCC27853 and with E. coli ATCC25922 were 0.5 µg/mL (≈ 1.12 µM), 0.25 µg/mL (≈ 0.56 µM) and 0.25 µg/mL (≈ 0.56 µM), respectively.
Take `CN1C[C@@H](C#CC#Cc2cc3n(c2)C(=O)N(CC[C@](C)(C(=O)NO)S(C)(=O)=O)C3)[C@@H]1CO` [Example 95, (2R)—N-hydroxy-4-(6-(((2R,3R)-2-(hydroxymethyl)-1-methylazetidin-3-yl)buta-1,3-diyn-1-yl)-3-oxo-1H-pyrrolo[1,2-c]imidazol-2(3H)-yl)-2-methyl-2-(methylsulfonyl)butanamide]: the results for the MIC in the assay on K. pneumoniae A-651, in the assay on P. aeruginosa ATCC27853 and with E. coli ATCC25922 were 1 µg/mL (≈ 2.16 µM), 0.5 µg/mL (≈ 1.08 µM) and 1 µg/mL (≈ 2.16 µM), respectively.
Regarding `C[C@@H]1[C@H](C#CC#Cc2cc3n(c2)C(=O)N(CC[C@](C)(C(=O)NO)S(C)(=O)=O)C3)CN1C` [Example 96, (2R)-4-(6-(((2R,3R)-1,2-dimethylazetidin-3-yl)buta-1,3-diyn-1-yl)-3-oxo-1H-pyrrolo[1,2-c]imidazol-2(3H)-yl)-N-hydroxy-2-methyl-2-(methylsulfonyl)butanamide], the MIC is 4 µg/mL (≈ 8.96 µM) against K. pneumoniae A-651, 2 µg/mL (≈ 4.48 µM) against P. aeruginosa ATCC27853 and 4 µg/mL (≈ 8.96 µM) against E. coli ATCC25922.
`CN1C[C@H](C#CC#Cc2cc3n(c2)C(=O)N(CC[C@](C)(C(=O)NO)S(C)(=O)=O)C3)[C@H]1CO` [Example 97, (2R)—N-hydroxy-4-(6-(((2S,3S)-2-(hydroxymethyl)-1-methylazetidin-3-yl)buta-1,3-diyn-1-yl)-3-oxo-1H-pyrrolo[1,2-c]imidazol-2(3H)-yl)-2-methyl-2-(methylsulfonyl)butanamide]: the MIC was determined as 1 µg/mL (≈ 2.16 µM) against K. pneumoniae A-651, 0.5 µg/mL (≈ 1.08 µM) in the assay with P. aeruginosa ATCC27853 and 0.5 µg/mL (≈ 1.08 µM) in the assay with E. coli ATCC25922.
Take `CN1C[C@H](C#CC#Cc2cc3n(c2)C(=O)N(CC[C@](C)(C(=O)NO)S(C)(=O)=O)C3)[C@H]1CF` [Example 98, (2R)—N-hydroxy-4-(6-(((2S,3S)-2-(fluoromethyl)-1-methylazetidin-3-yl)buta-1,3-diyn-1-yl)-3-oxo-1H-pyrrolo[1,2-c]imidazol-2(3H)-yl)-2-methyl-2-(methylsulfonyl)butanamide]: the MIC in the assay with K. pneumoniae A-651 was found to be 0.25 µg/mL (≈ 0.538 µM); against P. aeruginosa ATCC27853, 0.5 µg/mL (≈ 1.08 µM); with E. coli ATCC25922, 0.063 µg/mL (≈ 0.136 µM).
Regarding `C[C@@](CCN1Cc2cc(C#CC#C[C@H]3C[C@H](CO)N(C4COC4)C3)cn2C1=O)(C(=O)NO)S(C)(=O)=O` [Example 100, (2R)—N-hydroxy-4-(6-(((3R,5R)-5-(hydroxymethyl)-1-(oxetan-3-yl)pyrrolidin-3-yl)buta-1,3-diyn-1-yl)-3-oxo-1H-pyrrolo[1,2-c]imidazol-2(3H)-yl)-2-methyl-2-(methylsulfonyl)butanamide], the minimal inhibitory concentration (MIC) in the assay on K. pneumoniae A-651, with P. aeruginosa ATCC27853 and against E. coli ATCC25922 was 4 µg/mL (≈ 7.71 µM) in each case.
As for “(2R)-4-(6-((1-isopropylazetidin-3-yl)buta-1,3-diyn-1-yl)-3-oxo-1H-pyrrolo[1,2-c]imidazol-2(3H)-yl)-2-methyl-2-(methylsulfonyl)-N-((tetrahydro-2H-pyran-2-yl)oxy)butanamide [Example 59]”, in the assay with K. pneumoniae A-651, the “MIC for K. Pneumoniae A-651” value was found to be 0.5 µg/mL. Further, the “MIC for P. aeruginosa ATCC27853” value against P. aeruginosa ATCC27853 amounted to 0.5 µg/mL. Further, the “MIC for E. coli ATCC25922” value against E. coli ATCC25922 worked out at 1 µg/mL.
